Reference: patent publication US20090143279A1 (priority 2007, published 2009)
Read-outs that look alike come from different tables or passages of the source.

Assays:
[1] = test system: mitochondrial membrane potential; assay type: cell-based, mouse; settings: for ΔΨm (composite Z-score): normalized score vs mock-treated (DMSO) wells
cytochrome c = assay type: cell-based, mouse; settings: for cyt c (composite Z-score): normalized score vs mock-treated (DMSO) wells
C2C12 myotubes = settings: for Viability (composite Z-score): normalized score vs mock-treated (DMSO) wells
nuOXPHOS transcripts = assay type: cell-based, mouse; settings: for nucOX (composite Z-score): normalized score vs mock-treated (DMSO) wells
reactive oxygen species = assay type: cell-based, mouse; settings: for ROS (composite Z-score): normalized score vs mock-treated (DMSO) wells
mtOXPHOS transcripts = assay type: cell-based, mouse; settings: for mitoOX (composite Z-score): normalized score vs mock-treated (DMSO) wells
[2] = test system: cellular dehydrogenase activity; settings: for MTT (composite Z-score): normalized score vs mock-treated (DMSO) wells
OXPHOS gene expression = assay type: cell-based, mouse; settings: for GE-HTS (composite Z-score): normalized score vs mock-treated (DMSO) wells
[3] = composite Z-score vs DMSO, Conc 20 μM
[4] = normalized composite Z-score vs mock-treated (DMSO) wells, Conc 20 μM
[5] = 20 μM, composite Z-score vs DMSO
[6] = composite Z-score vs DMSO wells, Conc 20 μM

Row | SMILES | ΔΨm (composite Z-score) ([1]; Conc 20 μM) | cyt c (composite Z-score) (cytochrome c; Conc 20 μM) | Viability (composite Z-score) (C2C12 myotubes; Conc 20 μM) | nucOX (composite Z-score) (nuOXPHOS transcripts; Conc 20 μM) | ROS (composite Z-score) (reactive oxygen species; Conc 20 μM) | mitoOX (composite Z-score) (mtOXPHOS transcripts; Conc 20 μM) | MTT (composite Z-score) ([2]; Conc 20 μM) | GE-HTS (composite Z-score) (OXPHOS gene expression; Conc 20 μM) | ΔΨm [1, 3] | cyt c (cytochrome c; [3]) | Viability (C2C12 myotubes; [3]) | nucOX (nuOXPHOS transcripts; [3]) | ROS (reactive oxygen species; [3]) | mitoOX (mtOXPHOS transcripts; [3]) | MTT [2, 3] | GE-HTS (OXPHOS gene expression; [3]) | also measured
1 | OC[C@H]1O[C@@H](Oc2cc(O)cc(/C=C/c3ccc(O)cc3)c2)[C@H](O)[C@@H](O)[C@@H]1O [piceid] | 0.088 | 0.272 | −0.341 | 0.088 | 0.862 | 0.124 | −0.826 | 0.110 |  |  |  |  |  |  |  |  | 
2 | CCCCCc1c2c(cc(O)c1C(=O)O)OC(=O)c1c(cc(OC)cc1C(=O)CCCC)O2 [lobaric acid] |  |  |  |  |  |  |  |  | −0.164 | −0.020 | 0.082 | −0.499 | 0.860 | −0.343 | −0.427 | −0.455 | 
3 | COC(=O)c1c(C)c2c(c(C)c1OC)OC(=O)c1c(C)c(Cl)c(OC)c(Cl)c1O2 [leoidin dimethyl ether] |  |  |  |  |  |  |  |  |  |  |  |  |  |  |  |  | ΔΨm [1, 4]: −0.320; cyt c (cytochrome c; [4]): 1.032; Viability (C2C12 myotubes; [4]): 0.677; nucOX (nuOXPHOS transcripts; [4]): −0.595; ROS (reactive oxygen species; [4]): −0.121; mitoOX (mtOXPHOS transcripts; [4]): −1.691; MTT [2, 4]: −0.726; GE-HTS (OXPHOS gene expression; [4]): −1.008
4 | CCN1C[C@]2(C)CC[C@H](OC)[C@@]34C1[C@]1(OCO[C@@]15C[C@H](OC)[C@H]1C[C@]3(O)[C@@H]5[C@H]1OC)[C@@H](OC(C)=O)[C@H]24 [deltaline] | −0.496 | 0.271 | −0.735 | −0.062 | 1.654 | −0.422 | −1.231 | −0.220 |  |  |  |  |  |  |  |  | 
5 | CC(C)(O)[C@@H]1[C@H]2OC(=O)[C@@H]1[C@]1(O)C[C@H]3O[C@]34C(=O)O[C@H]2[C@]14C [picrotin] |  |  |  |  |  |  |  |  |  |  |  |  |  |  |  |  | ΔΨm [1, 5]: −0.167; cyt c (cytochrome c; [5]): 0.184; Viability (C2C12 myotubes; [5]): −0.278; nucOX (nuOXPHOS transcripts; [5]): 0.404; ROS (reactive oxygen species; [5]): 0.917; mitoOX (mtOXPHOS transcripts; [5]): −0.167; MTT [2, 5]: −1.155; GE-HTS (OXPHOS gene expression; [5]): 0.253
6 | N#Cc1c(Cl)c(Cl)c(Cl)c(C#N)c1Cl [tetrachloroisophthalonitrile] | −4.269 | −5.292 | −5.297 | −3.990 | −3.975 | −1.780 | −6.675 | −3.510 |  |  |  |  |  |  |  |  | 
7 | COc1ccccc1-c1cc(=O)c2cccc(OC)c2o1 [8,2′-dimethoxyflavone] | 1.282 | 0.864 | −1.096 | −0.414 | 1.219 | −0.811 | −0.556 | −0.593 |  |  |  |  |  |  |  |  | 
8 | Oc1c(Cl)cc(Cl)c2cccnc12 [chloroxine] |  |  |  |  |  |  |  |  |  |  |  |  |  |  |  |  | ΔΨm [1, 6]: 1.120; cyt c (cytochrome c; [6]): −0.800; Viability (C2C12 myotubes; [6]): −1.392; nucOX (nuOXPHOS transcripts; [6]): −0.461; ROS (reactive oxygen species; [6]): −2.934; mitoOX (mtOXPHOS transcripts; [6]): −2.181; MTT [2, 6]: −2.014; GE-HTS (OXPHOS gene expression; [6]): −1.089
9 | Cc1cc(=O)c2c(O)c3c(cc2o1)OCC(C)CC3 (centres unmarked) [dihydroptaeroxylin] |  |  |  |  |  |  |  |  |  |  |  |  |  |  |  |  | ΔΨm [1, 4]: −0.192; cyt c (cytochrome c; [4]): 0.403; Viability (C2C12 myotubes; [4]): 0.605; nucOX (nuOXPHOS transcripts; [4]): −0.410; ROS (reactive oxygen species; [4]): 0.151; mitoOX (mtOXPHOS transcripts; [4]): −0.787; MTT [2, 4]: −0.526; GE-HTS (OXPHOS gene expression; [4]): −0.581
10 | Cn1c(=O)[nH]c(=O)c2[nH]cnc21 [3-methylxanthine] |  |  |  |  |  |  |  |  | −0.149 | 0.692 | 0.036 | −1.286 | 0.472 | −0.856 | −0.859 | −1.241 | 
11 | C[C@H](N)[C@H](O)c1cccc(O)c1 [metaraminol] |  |  |  |  |  |  |  |  | −0.772 | 0.327 | 0.107 | −0.456 | 0.313 | −0.745 | −1.268 | −0.589 | 
12 | Nc1nc2c(ncn2[C@H]2C[C@H](O)[C@@H](CO)O2)c(=O)[nH]1 [deoxyguanosine] |  |  |  |  |  |  |  |  | −0.268 | 0.695 | −0.819 | −0.090 | −0.110 | 0.245 | −0.703 | −0.001 | 
13 | COc1cc2c(cc1-c1coc3c4c(c(OC)cc3c1=O)OC(C)(C)C=C4)OCO2 [ichthynone, reference compound] | −0.325 | 0.001 | 0.234 | −0.088 | 1.842 | −0.466 | −0.681 | −0.217 |  |  |  |  |  |  |  |  | 
